Experimental data published in patent publication US20170275298A1, “INHIBITORS OF THE RENAL OUTER MEDULLARY POTASSIUM CHANNEL” (Merck Sharp & Dohme Corp., priority 2014, published 2017).

What follows are compounds tested against T1, hROMK (hKir1.1) (Homo sapiens, UniProt P48048) (assay: Thallium Flux Assay (ROMK channel functional thallium flux assay)). Conditions: HEK293 cells stably expressing hROMK (hKir1.1); FluxOR thallium flux, FLIPR-Tetra, 30 min compound incubation; read-out: ROMK TI IC50.
T1 construct: expressed in transfected cells
T1 sequence (P48048 1-391): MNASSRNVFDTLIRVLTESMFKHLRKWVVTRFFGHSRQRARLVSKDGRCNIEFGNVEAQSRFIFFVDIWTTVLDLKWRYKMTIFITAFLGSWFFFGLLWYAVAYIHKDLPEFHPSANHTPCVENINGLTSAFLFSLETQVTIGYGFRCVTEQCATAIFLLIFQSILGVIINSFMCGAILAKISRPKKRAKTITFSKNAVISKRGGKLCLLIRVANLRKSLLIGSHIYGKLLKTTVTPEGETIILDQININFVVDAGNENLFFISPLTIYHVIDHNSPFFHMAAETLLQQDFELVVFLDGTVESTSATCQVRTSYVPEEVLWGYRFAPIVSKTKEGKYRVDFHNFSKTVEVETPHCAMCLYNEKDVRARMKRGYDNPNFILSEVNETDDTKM
Assay type: cell-based
Outline: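 HEK293 cells stably expressing hROMK (hKir1.1) loaded with FluxOR dye 90 min at ambient temperature, then compound 30 min before thallium/potassium stimulant (final 3 mM Tl/0.3 mM K). ROMK-sensitive flux defined by 3 μM standard inhibitor; data as % fluorescence change.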

Row | IC50 [nM] | SMILES
1 | 23.8 | Cc1c([C@@H](O)CN2CCC3(CC2)CCN(c2cc(Cl)cnn2)CC3)ccc2c1COC2=O [Example 131, (R)-5-(2-(9-(5-chloropyridazin-3-yl)-3,9-diazaspiro[5.5]undecan-3-yl)-1-hydroxyethyl)-4-methylisobenzofuran-1(3H)-one]
2 | 22.8 | Cc1c([C@@H](O)CN2CCC3(CC2)CCN(c2cnc(Cl)cn2)CC3)ccc2c1COC2=O [Example 132, (R)-5-(2-(9-(5-chloropyrazin-2-yl)-3,9-diazaspiro[5.5]undecan-3-yl)-1-hydroxyethyl)-4-methylisobenzofuran-1(3H)-one]
3 | 274 | Cc1c([C@@H](O)CN2CCC3(CC2)CCN(c2nccnc2Cl)CC3)ccc2c1COC2=O [Example 133, (R)-5-(2-(9-(3-chloropyrazin-2-yl)-3,9-diazaspiro[5.5]undecan-3-yl)-1-hydroxyethyl)-4-methylisobenzofuran-1(3H)-one]
4 | 747 | O[C@@H](CN1CCC2(CC1)CCN(c1cncc(Cl)n1)CC2)c1ccc(-n2cnnn2)nc1 [Example 134, (R)-1-(6-(1H-tetrazol-1-yl)pyridin-3-yl)-2-(9-(6-chloropyrazin-2-yl)-3,9-diazaspiro[5.5]undecan-3-yl)ethanol]
5 | 875 | O[C@@H](CN1CCC2(CC1)CCN(c1cnc(Cl)cn1)CC2)c1ccc(-n2cnnn2)nc1 [Example 135, (R)-1-(6-(1H-tetrazol-1-yl)pyridin-3-yl)-2-(9-(5-chloropyrazin-2-yl)-3,9-diazaspiro[5.5]undecan-3-yl)ethanol]
6 | 330 | Cc1c([C@@H](O)CN2CCC3(CC2)CCN(c2ncccn2)CC3)ccc2c1COC2=O [Example 136, (R)-5-(1-hydroxy-2-(9-(pyrimidin-2-yl)-3,9-diazaspiro[5.5]undecan-3-yl)ethyl)-4-methylisobenzofuran-1(3H)-one]
7 | 283 | Cc1c([C@@H](O)CN2CCC3(CC2)CCN(c2nccs2)CC3)ccc2c1COC2=O [Example 137, (R)-5-(1-hydroxy-2-(9-(thiazol-2-yl)-3,9-diazaspiro[5.5]undecan-3-yl)ethyl)-4-methylisobenzofuran-1(3H)-one]
8 | 387 | O[C@@H](CN1CCC2(CC1)CCN(c1cc(Cl)cnn1)CC2)c1ccc(-n2cnnn2)nc1 [Example 138, (R)-1-(6-(1H-tetrazol-1-yl)pyridin-3-yl)-2-(9-(5-chloropyridazin-3-yl)-3,9-diazaspiro[5.5]undecan-3-yl)ethanol]
9 | 251 | Cc1c([C@@H](O)CN2CCC3(CC2)CCN(c2cccnn2)CC3)ccc2c1COC2=O [Example 139, (R)-5-(1-hydroxy-2-(9-(pyridazin-3-yl)-3,9-diazaspiro[5.5]undecan-3-yl)ethyl)-4-methylisobenzofuran-1(3H)-one]
10 | 364 | COC(=O)c1csc(N2CCC3(CCN(C[C@H](O)c4ccc5c(c4C)COC5=O)CC3)CC2)n1 [Example 140, (R)-methyl 2-(9-(2-hydroxy-2-(4-methyl-1-oxo-1,3-dihydroisobenzofuran-5-yl)ethyl)-3,9-diazaspiro[5.5]undecan-3-yl)thiazole-4-carboxylate]
11 | 350 | COc1cnc(N2CCC3(CCN(C[C@H](O)c4ccc5c(c4C)COC5=O)CC3)CC2)cn1 [Example 141, (R)-5-(1-hydroxy-2-(9-(5-methoxypyrazin-2-yl)-3,9-diazaspiro[5.5]undecan-3-yl)ethyl)-4-methylisobenzofuran-1(3H)-one]
12 | 170 | Cc1c([C@@H](O)CN2CCC3(CC2)CCN(c2ccnnc2)CC3)ccc2c1COC2=O [Example 142, (R)-5-(1-hydroxy-2-(9-(pyridazin-4-yl)-3,9-diazaspiro[5.5]undecan-3-yl)ethyl)-4-methylisobenzofuran-1(3H)-one]
